Key:
[1] = test system: interferon and interferon-induced antiviral effector gene expression in cells expressing ORF10; experiment: qPCR of interferons and effector gene expression, ORF10; assay type: cell-based, human
[2] = test system: interferon and interferon-induced antiviral effector gene expression in cells expressing ORF8; experiment: qPCR of interferons and effector gene expression, ORF8; assay type: cell-based, human

Compound: C=C(C)[C@@H]1CCC(C)=C[C@H]1c1c(O)cc(CCCCC)cc1O [Cannabidiol, 2-[(1R,6R)-3-Methyl-6-(1-methylethenyl)-2-cyclohexen-1-yl]-5-pentyl-1,3-benzenediol]
- induction of OAS1 ([1]; ORF10, 1 μM CBD relative to vehicle alone, 24 hours (FIG. 14)): significantly increased
- OAS1 induction compared with CBD plus control plasmid ([1]; ORF10, 1 μM CBD, 24 hours): lower
- Interferon Lambda 1 mRNA expression ([2]; ORF8, 1 μM CBD vs vehicle alone, 24 hours (FIG. 9A)): significantly increased
- extent of OAS1 augmentation compared with cells transfected with control vector ([2]; ORF8, 1 μM CBD, 24 hours): significantly higher
- INF-gamma expression ([2]; ORF8, 1 μM CBD, 24 hours, compared with effect in control cells (FIG. 9B)): greater effect
- OAS1 gene expression ([2]; ORF8, 1 μM CBD, 24 hours, relative to all other groups and treatments (FIG. 10)): highly significant increase

— US20240226120A1 (priority 2020, published 2024)
